In patent US20210299134A1, “TREATMENT OF B CELL MALIGNANCIES” (MEI Pharma, Inc., priority 2018, published 2021):
Marks after values point to notes of the source that are not given here.

System: patients with FL or CLL/SLL
Test: Phase 1b study: adverse events of special interest (AESI) on IS or CS
Format: in vivo, human
Excerpt: In some instances, severe cases of enterocolitis, rash, and transaminitis have been reported in a Phase 1b clinical study of Compound A35 in patients with B-cell malignancies. In some instances, the onset of severe immune-related toxicities were reported after a period of CS dosing greater than 2 cycles. A lymphocytic infiltrate was reported in biopsies obtained from 1 patient with colitis and 1 patient with severe skin rash enrolled in the study. Furthermore, corticosteroid therapy has been reported as effective treatment approach in patients who developed diarrhea and rash in the study.
Following reports of delayed onset of cases of enterocolitis and rash in patients with Compound A35 initially administered once a day on a continuous dosing schedule (CS) in a 28-day cycle, an alternate dosing regimen using an intermittent dosing schedule (IS) was evaluated. The hypothesis was that an IS of PI3K5 inhibitors including Compound A35 could reduce the incidence or lower the severity of immune mediated adverse events (irAEs) by allowing recovery of TREGs during treatment-free intervals. Furthermore, it was hypothesized that the IS, by delivering a lower dose-intensity treatment approach, could be used to re-treat patients who have experienced delayed irAEs on the CS or IS and had recovered following treatment interruption and a short course of corticosteroids.
An intermittent dosing schedule on days 1-7 of a 28-day cycle was then evaluated after 2 cycles of daily dosing, or ≥3 cycles of daily dosing to reduce the risk of immune-related adverse events. For this analysis the intermittent schedule (IS) group is defined as patients who received Compound A35 alone or with rituximab daily for 2 cycles then switched to an intermittent schedule of 1 week per cycle, and the continuous schedule (CS) group is defined as patients who never switched to intermittent dosing or switched to intermittent dosing in cycle 4 or later cycles. Toxicity on CS is managed by a switch to IS.
The IS was developed to mitigate the risk of delayed toxicities observed with PI3K inhibitors and believed to be associated with on-target effect PI3K inhibition on immune cells.

## CN1CCC(c2ccccc2CC(C)(C)Nc2nc(N3CCOCC3)nc(-n3c(C(F)F)nc4ccccc43)n2)CC1 [Compound A35]
CLL/SLL, All (N = 17)
  AESI ALT/AST increased, All Grades, patients (%): 2 (11.8%)
  AESI ALT/AST increased, Related Grade 3, patients (%): 0%
  AESI Diarrhea/colitis, All Grades, patients (%): 9 (52.9%)
  AESI Diarrhea/colitis, Related Grade 3, patients (%): 4 (23.5%)
  AESI Mucositis, All Grades, patients (%): 1 (5.9%)
  AESI Mucositis, Related Grade 3, patients (%): 0%
  AESI Pneumonia/Pneumonitis, All Grades, patients (%): 3 (17.6%)
  AESI Pneumonia/Pneumonitis, Related Grade 3, patients (%): 3 (17.6%)
  AESI Rash, all types, All Grades, patients (%): 6 (35.3%)
  AESI Rash, all types, Related Grade 3, patients (%): 0%
CLL/SLL, CS Group (N = 9)
  AESI ALT/AST increased, All Grades, patients (%): 2 (22.2%)
  AESI ALT/AST increased, Related Grade 3, patients (%): 0%
  AESI Diarrhea/colitis, All Grades, patients (%): 6 (66.7%)
  AESI Diarrhea/colitis, Related Grade 3, patients (%): 3 (33.3%)
  AESI Mucositis, All Grades, patients (%): 1 (11.1%)
  AESI Mucositis, Related Grade 3, patients (%): 0%
  AESI Pneumonia/Pneumonitis, All Grades, patients (%): 3 (33.3%)
  AESI Pneumonia/Pneumonitis, Related Grade 3, patients (%): 3 (33.3%)
  AESI Rash, all types, All Grades, patients (%): 4 (44.0%)
  AESI Rash, all types, Related Grade 3, patients (%): 0%
CLL/SLL, IS Group (N = 8)
  AESI ALT/AST increased, All Grades, patients (%): 0%
  AESI ALT/AST increased, Related Grade 3, patients (%): 0%
  AESI Diarrhea/colitis, All Grades, patients (%): 3 (37.5%)
  AESI Diarrhea/colitis, Related Grade 3, patients (%): 1 (12.5%)
  AESI Mucositis, All Grades, patients (%): 0%
  AESI Mucositis, Related Grade 3, patients (%): 0%
  AESI Pneumonia/Pneumonitis, All Grades, patients (%): 0%
  AESI Pneumonia/Pneumonitis, Related Grade 3, patients (%): 0%
  AESI Rash, all types, All Grades, patients (%): 2 (25.0%)
  AESI Rash, all types, Related Grade 3, patients (%): 0%
FL, All (N = 40)
  AESI ALT/AST increased, All Grades, patients (%): 9 (22.5%)
  AESI ALT/AST increased, Related Grade 3, patients (%): 3 (7.5%)
  AESI Diarrhea/colitis, All Grades, patients (%): 17 (42.5%)
  AESI Diarrhea/colitis, Related Grade 3, patients (%): 6 (15.0%)
  AESI Mucositis, All Grades, patients (%): 6 (15.0%)
  AESI Mucositis, Related Grade 3, patients (%): 1 (2.5%)
  AESI Pneumonia/Pneumonitis, All Grades, patients (%): 2 (5.0%)
  AESI Pneumonia/Pneumonitis, Related Grade 3, patients (%): 2 (5.0%)
  AESI Rash, all types, All Grades, patients (%): 12 (30.0%)
  AESI Rash, all types, Related Grade 3, patients (%): 4 (10.0%)
FL, CS Group (N = 25)
  AESI ALT/AST increased, All Grades, patients (%): 6 (24.0%)
  AESI ALT/AST increased, Related Grade 3, patients (%): 3 (12.0%)
  AESI Diarrhea/colitis, All Grades, patients (%): 10 (40.0%)
  AESI Diarrhea/colitis, Related Grade 3, patients (%): 5 (20.0%)
  AESI Mucositis, All Grades, patients (%): 6 (24.0%)
  AESI Mucositis, Related Grade 3, patients (%): 1 (4.0%)
  AESI Pneumonia/Pneumonitis, All Grades, patients (%): 2 (8.0%)
  AESI Pneumonia/Pneumonitis, Related Grade 3, patients (%): 2 (8.0%)
  AESI Rash, all types, All Grades, patients (%): 11 (44.0%)
  AESI Rash, all types, Related Grade 3, patients (%): 4 (16.0%)
FL, IS Group (N = 15)
  AESI ALT/AST increased, All Grades, patients (%): 3 (20.0%)
  AESI ALT/AST increased, Related Grade 3, patients (%): 0%
  AESI Diarrhea/colitis, Related Grade 3, patients (%): 1 (6.7%)
  AESI Mucositis, All Grades, patients (%): 0%
  AESI Mucositis, Related Grade 3, patients (%): 0%
  AESI Pneumonia/Pneumonitis, All Grades, patients (%): 0%
  AESI Pneumonia/Pneumonitis, Related Grade 3, patients (%): 0%
  AESI Rash, all types, All Grades, patients (%): 1 (6.7%)
  AESI Rash, all types, Related Grade 3, patients (%): 0%
FL, IS Group (N = 15), excluded 1 subject with diarrhea after POD and 1 with diarrhea lasting one day with no dose change
  AESI Diarrhea/colitis, All Grades, patients (%): 7 (46.7%)*
IS versus CS
  immune-mediated toxicities with IS administration: reduces the incidence of or delayed onset of immune-mediated toxicities
Phase 1b study, patients with B-cell malignancies, CS dosing
  period of CS dosing before onset of severe immune-related toxicities: greater than 2 cycles
